Data as given in patent publication US20260191863A1, “PYRROLOPYRIMIDINE COMPOSITIONS FOR TREATMENT OF ITK MEDIATED CONDITIONS” (ACLARIS THERAPEUTICS, INC., priority 2022, published 2026).

Legend:
Assay type in all cases: cell-based
ITK = target: T1, ITK (Homo sapiens, UniProt Q08881); experiment: Cell IC50 ITK (Jurkat/pPLCγ1)
T1 construct: (Jurkat/pPLCγ1); endogenous in cells; host or cells: Jurkat
T1 sequence (Q08881 1-620): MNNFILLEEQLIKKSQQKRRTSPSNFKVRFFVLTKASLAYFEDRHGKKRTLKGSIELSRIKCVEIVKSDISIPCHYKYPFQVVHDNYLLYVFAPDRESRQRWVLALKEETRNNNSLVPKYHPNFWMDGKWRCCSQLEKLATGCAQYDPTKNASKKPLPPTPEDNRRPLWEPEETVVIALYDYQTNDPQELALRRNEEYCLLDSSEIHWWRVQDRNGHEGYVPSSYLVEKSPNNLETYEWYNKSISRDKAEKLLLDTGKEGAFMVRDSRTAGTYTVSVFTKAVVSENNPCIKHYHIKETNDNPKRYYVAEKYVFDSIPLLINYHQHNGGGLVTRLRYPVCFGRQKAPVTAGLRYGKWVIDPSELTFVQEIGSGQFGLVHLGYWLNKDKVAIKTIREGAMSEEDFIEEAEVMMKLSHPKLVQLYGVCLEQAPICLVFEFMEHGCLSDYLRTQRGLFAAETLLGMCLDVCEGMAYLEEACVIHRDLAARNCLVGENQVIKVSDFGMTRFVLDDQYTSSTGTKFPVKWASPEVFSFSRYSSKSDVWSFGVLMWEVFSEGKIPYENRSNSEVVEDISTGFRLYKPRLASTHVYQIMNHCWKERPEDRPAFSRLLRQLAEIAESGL

ITK (IL2 mRNA) = experiment: Pre-clinical human whole blood αCD3/28/IL-2 mRNA (2 hr); conditions: Homo sapiens, 2 h; read-out: Human Whole Blood EC50, αCD3/28/IL-2 mRNA (2 hr)
JAK3 (pSTAT5, lymph) = experiment: Pre-clinical human whole blood IL-2/pSTAT5 (20 min), lymphocytes; conditions: Homo sapiens, Lymphocyte, 20 min; read-out: Human Whole Blood EC50, IL-2/pSTAT5 (20 min)
ITK & JAK (IFNγ protein) = experiment: Pre-clinical human whole blood αCD3 + IL-15/IFNγ (18 hr); conditions: Homo sapiens, 18 h; read-out: Human Whole Blood EC50, αCD3 + IL-15/IFNγ (18 hr)
[1] = test system: IL15 stimulated IFNγ protein; experiment: Pre-clinical human whole blood IL-15/IFNγ (5 hr); conditions: Homo sapiens, 5 h, read-out: Human Whole Blood EC50, IL-15/IFNγ (5 hr)
JAK2 = target: T2, JAK2 (Homo sapiens, UniProt O60674); experiment: Cell IC50 JAK2
T2 construct: endogenous in cells
T2 sequence (O60674 whole entry): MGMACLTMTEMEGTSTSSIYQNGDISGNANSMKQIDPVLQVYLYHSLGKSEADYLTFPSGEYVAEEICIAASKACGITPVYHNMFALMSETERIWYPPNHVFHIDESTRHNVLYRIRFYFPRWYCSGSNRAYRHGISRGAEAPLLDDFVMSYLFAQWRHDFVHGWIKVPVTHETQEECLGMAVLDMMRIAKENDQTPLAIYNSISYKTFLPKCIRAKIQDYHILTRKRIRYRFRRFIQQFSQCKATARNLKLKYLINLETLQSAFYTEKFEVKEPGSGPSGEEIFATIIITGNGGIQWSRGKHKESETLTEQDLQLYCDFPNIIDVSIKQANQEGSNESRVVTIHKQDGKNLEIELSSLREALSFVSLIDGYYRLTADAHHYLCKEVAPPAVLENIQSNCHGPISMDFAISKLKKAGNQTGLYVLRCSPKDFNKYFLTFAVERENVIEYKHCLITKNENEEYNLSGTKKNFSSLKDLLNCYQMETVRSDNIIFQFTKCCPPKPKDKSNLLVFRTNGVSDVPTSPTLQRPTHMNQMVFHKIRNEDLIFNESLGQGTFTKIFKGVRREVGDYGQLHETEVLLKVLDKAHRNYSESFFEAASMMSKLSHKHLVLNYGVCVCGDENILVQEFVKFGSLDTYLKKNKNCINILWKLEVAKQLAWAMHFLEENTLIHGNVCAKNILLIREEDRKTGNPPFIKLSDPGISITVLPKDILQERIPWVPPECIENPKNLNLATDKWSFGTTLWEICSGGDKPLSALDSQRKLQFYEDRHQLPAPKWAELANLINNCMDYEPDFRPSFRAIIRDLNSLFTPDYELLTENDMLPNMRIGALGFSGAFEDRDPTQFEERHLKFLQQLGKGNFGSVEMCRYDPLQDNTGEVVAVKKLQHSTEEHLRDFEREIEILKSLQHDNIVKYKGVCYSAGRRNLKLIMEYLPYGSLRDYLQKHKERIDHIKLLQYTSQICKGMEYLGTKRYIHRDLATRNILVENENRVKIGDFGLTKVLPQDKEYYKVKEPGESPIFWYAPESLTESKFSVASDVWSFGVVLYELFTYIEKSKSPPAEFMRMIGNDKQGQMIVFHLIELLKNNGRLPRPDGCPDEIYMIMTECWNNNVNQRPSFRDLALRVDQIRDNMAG

Row | Cell IC50, ITK (ITK) | EC50 (ITK (IL2 mRNA)) | EC50 (JAK3 (pSTAT5, lymph)) | EC50 (ITK & JAK (IFNγ protein)) | EC50 [1] | Cell IC50, JAK2 (JAK2) | SMILES
1 | Inactive |  |  |  |  |  | C[C@@H]1CCN(C(=O)CC#N)C[C@@H]1N(C)c1ncnc2[nH]ccc12 [Tofacitinib, reference compound]
2 |  | 740 nM | […] | 33 nM | 52 nM | Inactive | C=CC(=O)N1C[C@H](Nc2ncnc3[nH]ccc23)CC[C@@H]1C [Ritlecitinib, reference compound]
